A short description of data set [1]: Check for adverse immunologic or clinical reaction to low-dose oral PABA in Subject 1. It counts as in vivo, human. The following applies: oral PABA 100 mg three times per day with DL-methionine 500 mg and vitamin E 200 I.U. The protocol:
Subject 1 is an individual and having hereditary motor and sensory neuropathy. The subject's family has the X-linked subvariety of the disease. All of the composition ingredients of this example were administered via the oral route.
On Sep. 1, 1990 Subject 1 began taking three 100 mg tablets of p-aminobenzoic acid per day. This daily dosage consisted of single 100 mg tablets (Schiff Products, Moonachie, N.J.) taken one at a time approximately every eight hours. Also initiated at this time and taken three times per day: DL-methionine, 500 mg and vitamin E (as mix tocopherols in oil-based capsules), 200 I.U. Their weight at the time was approximately 165 lbs. The daily dosage times were approximately 8:00 AM, 4:00 PM and 11:30 PM. This original low dosage of PABA was selected in part as a check to ensure no adverse immunologic reaction. Symptoms of allergic reaction such as bronchial constriction or skin rash were not observed.

In data set [2] the test system is left median and ulnar nerves. Briefly: Nerve conduction studies on Subject 1 in the clinical trial of PABA with antioxidant and vitamin co-agents. It counts as in vivo, human. The following applies: for Latency: distal latency; for Latency / Amplitude / Conduction velocity: May 6, 1992 study; for Change in amplitude / Change in conduction velocity / Change in distal latency: May 6, 1992 vs Jun. 20, 1988. The protocol:
Subject 1 is an individual and having hereditary motor and sensory neuropathy. The subject's family has the X-linked subvariety of the disease. All of the composition ingredients of this example were administered via the oral route. On Sep. 1, 1990 Subject 1 began taking three 100 mg tablets of p-aminobenzoic acid per day. This daily dosage consisted of single 100 mg tablets (Schiff Products, Moonachie, N.J.) taken one at a time approximately every eight hours. Also initiated at this time and taken three times per day: DL-methionine, 500 mg and vitamin E (as mix tocopherols in oil-based capsules), 200 I.U. Their weight at the time was approximately 165 lbs. The daily dosage times were approximately 8:00 AM, 4:00 PM and 11:30 PM. This original low dosage of PABA was selected in part as a check to ensure no adverse immunologic reaction. Symptoms of allergic reaction such as bronchial constriction or skin rash were not observed. […] On Oct. 1, 1990 Subject 1 began taking a total of 600 mg PABA per day by doubling the original dosage noted above; 200 mg taken three times per day. Also taken with PABA: DL-methionine, 500 mg and vitamin E, 200 I.U. On Jan. 1, 1991 Subject 1 began taking three 550 mg capsules of PABA (Solgar Co., Lynbrook, N.Y.) per day, one approximately every eight hours. DL-Methionine use was doubled to 1,000 mg every eight hours. Likewise, vitamin E deosage was doubled to 400 I.U. every eight hours. In addition, the following dietary supplements were initiated and taken once per day (4:00 PM): On Feb. 24, 1991 Subject 1 began taking six 550 mg capsules of PABA per day, two every eight hours plus the dietary supplement combination initiated January 1st. DL-Methionine and vitamin E dosage were continued as initiated January 1st; 3,000 mg and 1,200 I.U. total daily, respectively. Dosage of additional dietary supplements was also continued as initiated January 1st, with the addition of 100 mg vitamin B1 per day. Also, selenium daily dosage was reduced to 12 ug per day. As of May 1, 1991 consumption of pantothenic acid and vitamin B1 were tripled to 250 mg 3× daily and 100 mg 3× daily, respectively, taken with PABA. Also initiated now, vitamin B6, 100 mg taken 3× daily with PABA. As of Jul. 1, 1991 the methionine product was switched to “L-Methionine 500 mg Caps with Vitamin B6” (Nature's Plus, Farmingdale, N.Y.). Each capsule has the free form of the L-amino acid and 50 mg vitamin B6. This dose of vitamin B6 is in addition to the 300 mg/day noted in the preceding paragraph. As of Jul. 26, 1991 the vitamin E product was switched to “Natural Dry All E, 400 I.U.” (Schiff Products, Moonachie, N.J.). One of these dry powder capsules is taken 3× daily with PABA, as before. As of Aug. 7, 1991 daily doses of PABA, methionine and vitamin E were increased by 50%. Thus starting at this time, three 550 mg PABA capsules, three 500 mg methionine capsules, one 400 I.U. dry vitamin E and a 200 I.U. dry vitamin E capsule were taken at a time, three times per day. Daily totals of these agents were now: PABA, 4.95 gm; methionine, 4.5 gm; and vitamin E, 1,800 I.U. Other agents were taken as before. As of Nov. 22, 1991 the daily dose of PABA was increased. Thus starting at this time, four 550 mg PABA capsules were taken at a time, three times per day. Daily total of PABA was now 6.6 gm. Other agents were taken as before. On Jun. 20, 1988 Subject 1 participated in a nerve conduction research study at the National Institutes of Health. Nerve conduction data was recorded from the left median and ulnar nerves, which included conduction velocity, amplitude and distal latency for each nerve. On May 6, 1992 Subject 1 was tested again at the office of a neurologist in Bryn Mawr, Pa. This experimental drug trial involved a step-by-step increase in dosages over an extended period. […]

The test system of another data set is myocardial glutathione. The following applies: subsequent to experimental ischemia and reperfusion; cited from earlier work.
Data set [3] has as its system plasma cysteine, plasma glutathione and red blood cell glutathione. The following applies: in vivo; cited from earlier work.

Consider `Nc1ccc(C(=O)O)cc1` [PABA, 4-Aminobenzoic acid], for which the “Clinical reaction to PABA” value in data set [1] is “no clinical reaction”. In addition, in data set [1], the “Symptoms of allergic reaction such as bronchial constriction or skin rash” value is “not observed”. Also, the Latency in data set [2] (left median nerve, after PABA up to 6.6 gm/day with co-agents, pre-treatment Jun. 20, 1988 value 12.4) was 13.1 ms; in data set [2] (left ulnar nerve, after PABA up to 6.6 gm/day with co-agents, pre-treatment Jun. 20, 1988 value 13.8) it was 13.1 ms. Besides, the Amplitude in data set [2] (left median nerve, after PABA up to 6.6 gm/day with co-agents, pre-treatment Jun. 20, 1988 value 0.4) came to 0.4 mV; in data set [2] (left ulnar nerve, after PABA up to 6.6 gm/day with co-agents, pre-treatment Jun. 20, 1988 value 1.3) it was 2.4 mV. Besides, the Conduction velocity in data set [2] (left median nerve, after oral PABA raised stepwise from 300 mg/day to 6.6 gm/day (Sep 1990-May 1992) with methionine, vitamin E and vitamin co-agents, Subject 1, X-linked HMSN, pre-treatment Jun. 20, 1988 value 28) was found to be 28.2 meters/sec; in data set [2] (left ulnar nerve, after PABA up to 6.6 gm/day with co-agents, pre-treatment Jun. 20, 1988 value 29), 31.8 meters/sec. For the same molecule, the Change in amplitude entry in data set [2] (left median nerve) is recorded as “remained unchanged”; in data set [2] (left ulnar nerve) it was “improved by eighty-five percent”. In addition, the “Change in conduction velocity” value in data set [2] (left median nerve) was “remained unchanged”; in data set [2] (left ulnar nerve) it was “improved by ten percent”. The “Change in distal latency” value in data set [2] (left median nerve) was “increased (that is, worsened) by six percent”; in data set [2] (left ulnar nerve), “improved by five percent”.

As for `CC(=O)N[C@@H](CS)C(=O)O` [N-acetyl-cysteine], in the data set with myocardial glutathione, the “Increase in myocardial glutathione” value is 100 fold. Moreover, in data set [3], the “Levels of plasma cysteine, plasma glutathione and red blood cell glutathione” value is listed as “increase”.

The record behind these values is patent US6746678B1, “Method of treating neurological diseases and etiologically related symptomology using carbonyl trapping agents in combination with medicaments” (priority 1991, dated 2004).
